# Patent US8895608B2, “Sulfonamide anti-viral compounds” (Kineta, Inc., priority 2010, dated 2014)
# Entries after “also recorded” stand apart in the source; their conditions may differ.
# Legend:
# Huh7 cells = experiment: MTS assay to determine cytotoxicity; format: cell-based, human; details: 24 hours, up to 50 μM
# Experimental: MTS assay to determine cytotoxicity. Cultured human Huh7 cells are treated with increasing amounts of KIN600 or equivalent amounts of DMSO diluted in media for 24 hours to see their effect on cell viability.
# Cell Titer One (Promega) is the one step reagent used according to manufacturer's protocol, and cells are incubated for three hours in the presence of reagent before O.D. reading is done. Compounds were diluted to final concentrations of 0, 5, 10, 20, and 50 μM in media containing 0.5% DMSO. Negative control wells contain no compound and positive control for cytotoxicity is examined using an EMCV infection which causes 100% cytopathic effect. Each compound concentration and control is done in triplicate wells to generate error bars.
# Final KIN600 concentrations of 50 μM, 20 μM, 10 μM, and 5 μM were made in 0.5% DMSO containing media and were added to Huh7 cells to examine cytotoxicity in a MTS assay. Cells were treated for 24 hours with varying concentrations of compound and were analyzed for cell viability compared to negative control samples that were not treated with compound but grown in DMSO containing media. The cellular metabolism (O.D.) was in the range of 1.75 to below 2.0 at compound concentrations of 50 μM, 20 μM, 10 μM, 5 μM, and 0.
# HCV2a virus = experiment: HCV IF antiviral assay; format: cell-based, Hepatitis C virus
# [1] = tested on: Murine Encephalomyocarditis virus (EMCV); experiment: EMCV antiviral assay (cell viability by MTS after infection); details: Huh7 cells, 250 pfu EMCV, 18 hours
structure (smiles),measurement,setting,value
COC(=O)c1sccc1S(=O)(=O)Nc1ccc2c(c1)OCO2 [KIN600],cytotoxicity (result in words),Huh7 cells,no significant cytotoxicity; also recorded: no significant toxicity
same,HCV infected foci (number of FFU/well),"HCV2a virus; Huh7 cells pre-treated 24 hours at 10 μM, HCV2a MOI 0.1-0.5",12±4 FFU/well
same,antiviral activity against HCV (result in words),"HCV2a virus; Huh7 cells, HCV2a",showed antiviral activity; also recorded: has antiviral properties
same,Cell viability post-infection,[1]; 5 μL,~0.7
same,Cell viability post-infection,[1]; 10 μL,~1.4
